Data published in US6355799B1, “Substituted benzene compounds, process for their preparation, and herbicidal and defoliant compositions containing them” (ISK Americas Incorporated, priority 1997, dated 2002).

What was measured:
Format in all cases: in vivo
[1] = test system: field corn (Zea mays L., var. Dekalb 535, CORN); assay: Post-emerge test, crop safety; conditions: rating scale 0-100 (0 no damage, 100 complete death), 14 days after application
Method in brief: (§1)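 Each test used a mechanized track sprayer delivering 187 l/ha of acetone solution at 15–1000 g ai/ha. Post-emerge foliage at 2–3 leaves was treated with added 0.25% v/v non-ionic surfactant and bottom-watered only. Injury was assessed on day 14, where 100 means total kill.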

[2] = test system: upland rice (Oryza sp., var. Tebonnet, RICE); assay: Post-emerge test, crop safety; conditions: rating scale 0-100 (0 no damage, 100 complete death), 14 days after application
Method in brief: as §1

[3] = test system: sicklepod (Cassia obtusifolia, CASOB); assay: Pre-emerge test, greenhouse herbicide activity screening; conditions: rating scale 0-100, 14 days after application
Method in brief: (§2)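 Plants grown in 10 cm pots of sandy loam mix received acetone-dissolved compounds through a moving flat-fan nozzle. Doses ranged from 15 to 1000 g ai/ha. Pre-emerge pots were seeded one day earlier, post-emerge pots 8–21 days earlier. Fourteen days on, each pot was graded 0–100 for damage.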

[4] = test system: velvetleaf (Abutilon theophrasti, ABUTH); assay: as above; conditions: rating scale 0-100, 14 days after application
Method in brief: as §2

[5] = test system: barnyardgrass (Echinochloa crus-galli, ECHCG); assay: as above; conditions: rating scale 0-100, 14 days after application
Method in brief: as §2

[6] = test system: green foxtail (Setaria viridis, SETVI); assay: as above; conditions: rating scale 0-100, 14 days after application
Method in brief: as §2

[7] = test system: large crabgrass (Digitaria sanguinalis, DIGSA); assay: as above; conditions: rating scale 0-100, 14 days after application
Method in brief: as §2

[8] = test system: lambsquarters (Chenopodium album, CHEAL); assay: as above; conditions: rating scale 0-100, 14 days after application
Method in brief: as §2

[9] = test system: ivyleaf morningglory (Ipomoea hederacea, IPOHE); assay: as above; conditions: rating scale 0-100, 14 days after application
Method in brief: as §2

[10] = test system: johnsongrass (Sorghum halepense, SORHA); assay: as above; conditions: rating scale 0-100, 14 days after application
Method in brief: as §2

[11] = test system: sicklepod (Cassia obtusifolia, CASOB); assay: Post-emerge test, greenhouse herbicide activity screening; conditions: rating scale 0-100 (0 no damage, 100 complete death), 14 days after application
Method in brief: (§3)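 Herbicidal damage is scored 0 (none) to 100 (complete plant death) two weeks after a simulated field spray. Rates span 15–1000 g ai/ha, delivered in acetone at 187 l/ha. For post-emergence treatments, plants have 2–3 leaves and the spray carries 0.25% v/v non-ionic surfactant.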

[12] = test system: velvetleaf (Abutilon theophrasti, ABUTH); assay: as above; conditions: rating scale 0-100 (0 no damage, 100 complete death), 14 days after application
Method in brief: as §3

[13] = test system: barnyardgrass (Echinochloa crus-galli, ECHCG); assay: as above; conditions: rating scale 0-100 (0 no damage, 100 complete death), 14 days after application
Method in brief: as §3

[14] = test system: green foxtail (Setaria viridis, SETVI); assay: as above; conditions: rating scale 0-100 (0 no damage, 100 complete death), 14 days after application
Method in brief: as §3

[15] = test system: large crabgrass (Digitaria sanguinalis, DIGSA); assay: as above; conditions: rating scale 0-100 (0 no damage, 100 complete death), 14 days after application
Method in brief: as §3

[16] = test system: redroot pigweed (Amaranthus retroflexus, AMARE); assay: as above; conditions: rating scale 0-100 (0 no damage, 100 complete death), 14 days after application
Method in brief: as §3

[17] = test system: lambsquarters (Chenopodium album, CHEAL); assay: as above; conditions: rating scale 0-100 (0 no damage, 100 complete death), 14 days after application
Method in brief: as §3

[18] = test system: ivyleaf morningglory (Ipomoea hederacea, IPOHE); assay: as above; conditions: rating scale 0-100 (0 no damage, 100 complete death), 14 days after application
Method in brief: as §3

[19] = test system: common ragweed (Ambrosia artemisizfolia L., AMBEL); assay: as above; conditions: rating scale 0-100 (0 no damage, 100 complete death), 14 days after application
Method in brief: as §3

[20] = test system: johnsongrass (Sorghum halepense, SORHA); assay: as above; conditions: rating scale 0-100 (0 no damage, 100 complete death), 14 days after application
Method in brief: as §3

[21] = test system: redroot pigweed (Amaranthus retroflexus, AMARE); assay: Pre-emerge test, greenhouse herbicide activity screening; conditions: rating scale 0-100, 14 days after application
Method in brief: as §3

[22] = test system: field corn (Zea mays L., var. Dekalb 535, CORN); assay: Pre-emerge test, crop safety; conditions: rating scale 0-100, 14 days after application
Method in brief: as §3

[23] = test system: upland rice (Oryza sp., var. Tebonnet, RICE); assay: Pre-emerge test, crop safety; conditions: rating scale 0-100, 14 days after application
Method in brief: as §3

COc1c(Cl)cc(F)c(-n2c(=O)cc(C(F)(F)F)n(C)c2=O)c1CC(Cl)C(=O)OCC(C)C (single isomer, unassigned) [14-14]
Post-emerge phytotoxicity rating CORN (crop damage) ([1]; Rate 63 g ai/ha): 10 | Post-emerge phytotoxicity rating CORN (crop damage) ([1]; Rate 250 g ai/ha): 50 | Post-emerge phytotoxicity rating RICE (crop damage) ([2]; Rate 63 g ai/ha): 0 | Post-emerge phytotoxicity rating RICE (crop damage) ([2]; Rate 250 g ai/ha): 30 | Pre-emerge herbicidal activity, phytotoxicity rating CASOB ([3]; 63 g ai/ha): 0 | Pre-emerge herbicidal activity, phytotoxicity rating CASOB ([3]; 250 g ai/ha): 0 | Pre-emerge herbicidal activity, phytotoxicity rating ABUTH ([4]; 63 g ai/ha): 0 | Pre-emerge herbicidal activity, phytotoxicity rating ABUTH ([4]; 250 g ai/ha): 20 | Pre-emerge herbicidal activity, phytotoxicity rating ECHCG ([5]; 63 g ai/ha): 0 | Pre-emerge herbicidal activity, phytotoxicity rating ECHCG ([5]; 250 g ai/ha): 10 | Pre-emerge herbicidal activity, phytotoxicity rating SETVI ([6]; 63 g ai/ha): 0 | Pre-emerge herbicidal activity, phytotoxicity rating SETVI ([6]; 250 g ai/ha): 50 | Pre-emerge herbicidal activity, phytotoxicity rating DIGSA ([7]; 63 g ai/ha): 50 | Pre-emerge herbicidal activity, phytotoxicity rating DIGSA ([7]; 250 g ai/ha): 90 | Pre-emerge herbicidal activity, phytotoxicity rating CHEAL ([8]; 63 g ai/ha): 60 | Pre-emerge herbicidal activity, phytotoxicity rating CHEAL ([8]; 250 g ai/ha): 100 | Pre-emerge herbicidal activity, phytotoxicity rating IPOHE ([9]; 63 g ai/ha): 0 | Pre-emerge herbicidal activity, phytotoxicity rating IPOHE ([9]; 250 g ai/ha): 20 | Pre-emerge herbicidal activity, phytotoxicity rating SORHA ([10]; 63 g ai/ha): 0 | Pre-emerge herbicidal activity, phytotoxicity rating SORHA ([10]; 250 g ai/ha): 0 | Post-emerge Herbicidal Activity, phytotoxicity rating CASOB ([11]; Rate 63 g ai/ha): 0 | Post-emerge Herbicidal Activity, phytotoxicity rating CASOB ([11]; Rate 250 g ai/ha): 60 | Post-emerge Herbicidal Activity, phytotoxicity rating ABUTH ([12]; Rate 63 g ai/ha): 50 | Post-emerge Herbicidal Activity, phytotoxicity rating ABUTH ([12]; Rate 250 g ai/ha): 100 | Post-emerge Herbicidal Activity, phytotoxicity rating ECHCG ([13]; Rate 63 g ai/ha): 100 | Post-emerge Herbicidal Activity, phytotoxicity rating ECHCG ([13]; Rate 250 g ai/ha): 100 | Post-emerge Herbicidal Activity, phytotoxicity rating SETVI ([14]; Rate 63 g ai/ha): 50 | Post-emerge Herbicidal Activity, phytotoxicity rating SETVI ([14]; Rate 250 g ai/ha): 70 | Post-emerge Herbicidal Activity, phytotoxicity rating DIGSA ([15]; Rate 63 g ai/ha): 90 | Post-emerge Herbicidal Activity, phytotoxicity rating DIGSA ([15]; Rate 250 g ai/ha): 100 | Post-emerge Herbicidal Activity, phytotoxicity rating AMARE ([16]; Rate 63 g ai/ha): 50 | Post-emerge Herbicidal Activity, phytotoxicity rating AMARE ([16]; Rate 250 g ai/ha): 100 | Post-emerge Herbicidal Activity, phytotoxicity rating CHEAL ([17]; Rate 63 g ai/ha): 50 | Post-emerge Herbicidal Activity, phytotoxicity rating CHEAL ([17]; Rate 250 g ai/ha): 90 | Post-emerge Herbicidal Activity, phytotoxicity rating IPOHE ([18]; Rate 63 g ai/ha): 30 | Post-emerge Herbicidal Activity, phytotoxicity rating IPOHE ([18]; Rate 250 g ai/ha): 50 | Post-emerge Herbicidal Activity, phytotoxicity rating AMBEL ([19]; Rate 63 g ai/ha): 70 | Post-emerge Herbicidal Activity, phytotoxicity rating AMBEL ([19]; Rate 250 g ai/ha): 70 | Post-emerge Herbicidal Activity, phytotoxicity rating SORHA ([20]; Rate 63 g ai/ha): 0 | Post-emerge Herbicidal Activity, phytotoxicity rating SORHA ([20]; Rate 250 g ai/ha): 20 | Pre-emerge herbicidal activity, phytotoxicity rating AMARE ([21]; 63 g ai/ha): 100 | Pre-emerge herbicidal activity, phytotoxicity rating AMARE ([21]; 250 g ai/ha): 100 | Pre-emerge phytotoxicity rating, crop damage CORN ([22]; 63 g ai/ha): 0 | Pre-emerge phytotoxicity rating, crop damage CORN ([22]; 250 g ai/ha): 0 | Pre-emerge phytotoxicity rating, crop damage RICE ([23]; 63 g ai/ha): 0 | Pre-emerge phytotoxicity rating, crop damage RICE ([23]; 250 g ai/ha): 20
